According to US9499550B2 (BRISTOL-MYERS SQUIBB COMPANY, priority 2012, dated 2016):
Like-named read-outs stand apart in the source and are kept apart here.

Experiments:
[1] = tested on: HCV genotype 1a (H77 strain) replicon in HUH-7 cells; assay: HCV replicon luciferase reporter assay, genotype 1a; assay type: cell-based; settings: Hepatitis C virus, Huh-7, 72 h, 3 days incubation, read-out: LE_1a (EC50, range)
In short: (§1)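 Replicon inhibition for both genotypes was measured as Renilla luciferase signal (EnduRen, 7.5 μM final, 2 h) after 3-day, 37° C exposure of replicon-bearing HUH-7 cells in 4% FCS DMEM, 0.5% DMSO. The 1b construct carries S1179I; the 1a H77 construct carries P1496L and S2204I. Twenty-point, 3-fold dilutions were fitted four-parametrically for EC50, and CC50 was taken from multiplexed Cell Titer-Blue.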

[2] = tested on: HCV genotype 1b (Con1) replicon in HUH-7 cells; assay: HCV replicon luciferase reporter assay, genotype 1b; assay type: cell-based; settings: Hepatitis C virus, Huh-7, 72 h, 3 days incubation, read-out: LE_1b (EC50, range)
In short: as §1

[3] = HCV genotype 1a replicon luciferase
[4] = HCV genotype 1b replicon luciferase
[5] = GETYPE1A, HCV genotype 1a replicon luciferase
[6] = GETYPE1B, HCV genotype 1b replicon luciferase
[7] = HCV genotype 1a replicon luciferase assay, range class
[8] = HCV genotype 1b replicon luciferase assay, range class

Structure (SMILES): CC[C@@H]1C[C@H](C)CC/C=C\[C@@H]2C[C@@]2(C(=O)NS(=O)(=O)C2CC2)NC(=O)[C@@H]2C[C@@H](Oc3nccc4cc(OC)c(F)cc34)CN2C(=O)[C@H]1NC(=O)OC(C)(C)C [Compound 4003, tert-butyl (2R,6S,7R,9R,13aS,14aR,16aS,Z)-14a-(cyclopropylsulfonylcarbamoyl)-7-ethyl-2-(7-fluoro-6-methoxyisoquinolin-1-yloxy)-9-methyl-5,16-dioxo-1,2,3,5,6,7,8,9,10,11,13a,14,14a,15,16,16a-hexadecahydrocyclopropa[e]pyrrolo[1,2-a][1,4]diazacyclopentadecin-6-ylcarbamate]
- EC50 [1, 3]: < 5.46 nM
- EC50 [2, 4]: < 5.46 nM

Structure (SMILES): C[C@H]1CC/C=C\[C@@H]2C[C@@]2(C(=O)NS(=O)(=O)C2CC2)NC(=O)[C@@H]2C[C@@H](Oc3nccc4c5c(ccc34)N(C)CCO5)CN2C(=O)[C@@H](NC(=O)OC(C)(C)C(C)(F)F)[C@H](C)C1 [Compound 5281, 3,3-difluoro-2-methylbutan-2-yl((2R,6S,7R,9S,13aS,14aR,16aS,Z)-14a-((cyclopropylsulfonyl)carbamoyl)-7,9-dimethyl-2-((4-methyl-3,4-dihydro-2H-[1,4]oxazino[2,3-f]isoquinolin-7-yl)oxy)-5,16-dioxo-1,2,3,5,6,7,8,9,10,11,13a,14,14a,15,16,16a-hexadecahydrocyclopropa[e]pyrrolo[1,2-a][1,4]diazacyclopentadecin-6-yl)carbamate]
- EC50 [1, 3]: < 5.46 nM
- EC50 [2, 4]: < 5.46 nM

Structure (SMILES): CC[C@@H]1C[C@H](C)CC/C=C\[C@@H]2C[C@@]2(C(=O)NS(=O)(=O)C2(C)CC2)NC(=O)[C@@H]2C[C@@H](Oc3ncc(OC)c4ccc(F)cc34)CN2C(=O)[C@H]1NC(=O)C(C)(C)C(F)(F)F [Compound 4324, (2R,6S,7R,9R,13aS,14aR,16aS,Z)-7-ethyl-2-((7-fluoro-4-methoxyisoquinolin-1-yl)oxy)-9-methyl-N-((1-methylcyclopropyl)sulfonyl)-5,16-dioxo-6-(3,3,3-trifluoro-2,2-dimethylpropanamido)-1,2,3,5,6,7,8,9,10,11,13a,14,14a,15,16,16a-hexadecahydrocyclopropa[e]pyrrolo[1,2-a][1,4]diazacyclopentadecine-14a-carboxamide]
- EC50 [1, 3]: 1.01 to 5 nM
- EC50 [2, 4]: 0.51 to 1 nM

Structure (SMILES): CC[C@@H]1C[C@H](C)CC/C=C\[C@@H]2C[C@@]2(C(=O)NS(=O)(=O)C2(C)CC2)NC(=O)[C@@H]2C[C@@H](Oc3cc(OC)nc4cc(OC)c(F)cc34)CN2C(=O)[C@H]1NC(=O)OC(C)(C)C(F)(F)F [Compound 1199]
- EC50 [1, 5]: 1.01 to 5 nM
- EC50 [2, 6]: 1.01 to 5 nM

Structure (SMILES): COc1cc2ccnc(O[C@@H]3C[C@H]4C(=O)N[C@]5(C(=O)NS(=O)(=O)C6CC6)C[C@H]5/C=C\CC[C@@H](C)C[C@@H](C)[C@H](NC(=O)OC(C)(C)C(C)(F)F)C(=O)N4C3)c2cc1OC [Compound 5389, 3,3-difluoro-2-methylbutan-2-yl((2R,6S,7R,9R,13aS,14aR,16aS,Z)-14a-((cyclopropylsulfonyl)carbamoyl)-2-((6,7-dimethoxyisoquinolin-1-yl)oxy)-7,9-dimethyl-5,16-dioxo-1,2,3,5,6,7,8,9,10,11,13a,14,14a,15,16,16a-hexadecahydrocyclopropa[e]pyrrolo[1,2-a][1,4]diazacyclopentadecin-6-yl)carbamate]
- EC50 [1, 3]: 1.01 to 5 nM
- EC50 [2, 4]: 1.01 to 5 nM

Structure (SMILES): CC(C)Oc1cc2c(Cl)cccc2c(O[C@@H]2C[C@H]3C(=O)N[C@]4(C(=O)NS(=O)(=O)C5CC5)C[C@H]4/C=C\CC[C@@H](C)C[C@@H](C)[C@H](NC(=O)OC(C)(C)C(C)(F)F)C(=O)N3C2)n1 [Compound 1106, 3,3-difluoro-2-methylbutan-2-yl((2R,6S,7R,9R,13aS,14aR,16aS,Z)-2-((5-chloro-3-isopropoxyisoquinolin-1-yl)oxy)-14a-((cyclopropylsulfonyl)carbamoyl)-7,9-dimethyl-5,16-dioxo-1,2,3,5,6,7,8,9,10,11,13a,14,14a,15,16,16a-hexadecahydrocyclopropa[e]pyrrolo[1,2-a][1,4]diazacyclopentadecin-6-yl)carbamate]
- EC50 [1, 7]: < 5.46 nM
- EC50 [2, 8]: < 5.46 nM

Structure (SMILES): C[C@@H]1CC/C=C\[C@@H]2C[C@@]2(C(=O)NS(=O)(=O)C2(C)CC2)NC(=O)[C@@H]2C[C@@H](Oc3ncc(OCC(F)F)c4ccccc34)CN2C(=O)[C@@H](NC(=O)OC(C)(C)C(F)(F)F)[C@H](C)C1 [Compound 1030, 1,1,1-trifluoro-2-methylpropan-2-yl((2R,6S,7R,9R,13aS,14aR,16aS,Z)-2-((4-(2,2-difluoroethoxyl)isoquinolin-1-yl)oxy)-7,9-dimethyl-14a-(((1-methylcyclopropyl)sulfonyl)carbamoyl)-5,16-dioxo-1,2,3,5,6,7,8,9,10,11,13a,14,14a,15,16,16a-hexadecahydrocyclopropa[e]pyrrolo[1,2-a][1,4]diazacyclopentadecin-6-yl)carbamate]
- EC50 [1, 7]: < 5.46 nM
- EC50 [2, 8]: < 5.46 nM

Structure (SMILES): COc1ccc2c(O[C@@H]3C[C@H]4C(=O)N[C@]5(C(=O)NS(=O)(=O)C6(C)CC6)C[C@H]5/C=C\CC[C@@H](C)C[C@@H](C)[C@H](NC(=O)O[C@H](C)C(F)(F)F)C(=O)N4C3)nc(-c3ccc(F)cc3)cc2c1 [Compound 3083, (R)-1,1,1-trifluoropropan-2-yl ((2R,6S,7R,9R,13aS,14aR,16aS,Z)-2-((3-(4-fluorophenyl)-6-methoxyisoquinolin-1-yl)oxy)-7,9-dimethyl-14a-(((1-methylcyclopropyl)sulfonyl)carbamoyl)-5,16-dioxo-1,2,3,5,6,7,8,9,10,11,13a,14,14a,15,16,16a-hexadecahydrocyclopropa[e]pyrrolo[1,2-a][1,4]diazacyclopentadecin-6-yl)carbamate]
- EC50 [1, 7]: < 5.46 nM
- EC50 [2, 8]: < 5.46 nM

Structure (SMILES): [2H]C([2H])([2H])C(OC(=O)N[C@@H]1C(=O)N2C[C@H](Oc3nc(N(C)C)cc4cc(OC)ccc34)C[C@H]2C(=O)N[C@]2(C(=O)NS(=O)(=O)C3(C)CC3)C[C@H]2/C=C\CC[C@@H](C)C[C@H]1C)(C([2H])([2H])[2H])C(F)(F)F [Compound 3115, 1,1,1,3,3,3-hexadeutero-2-(trifluoromethyl)propan-2-yl((2R,6S,7R,9R,13aS,14aR,16aS,Z)-2-((3-(dimethylamino)-6-methoxyisoquinolin-1-yl)oxy)-7,9-dimethyl-14a-(((1-methylcyclopropyl)sulfonyl)carbamoyl)-5,16-dioxo-1,2,3,5,6,7,8,9,10,11,13a,14,14a,15,16,16a-hexadecahydrocyclopropa[e]pyrrolo[1,2-a][1,4]diazacyclopentadecin-6-yl)carbamate]
- EC50 [1, 7]: 4.82 to 103 nM
- EC50 [2, 8]: 4.82 to 103 nM

Structure (SMILES): COc1cnc(O[C@@H]2C[C@H]3C(=O)N[C@]4(C(=O)NS(=O)(=O)C5(F)CC5)C[C@H]4/C=C\CC[C@@H](C)C[C@@H](C)[C@H](NC(=O)OC(C)(C)C(F)(F)F)C(=O)N3C2)c2cc(F)ccc12 [Compound 4068]
- EC50 [1, 5]: < 5.46 nM
- EC50 [2, 6]: < 5.46 nM

Structure (SMILES): COc1ccc2c(O[C@@H]3C[C@H]4C(=O)N[C@]5(C(=O)NS(=O)(=O)C6(C)CC6)C[C@H]5/C=C\CC[C@@H](C)C[C@@H](C)[C@H](NC(=O)OC(C)(C)C)C(=O)N4C3)nc(N(C)C)cc2c1 [Compound 3109, tert-butyl ((2R,6S,7R,9R,13aS,14aR,16aS,Z)-2-((3-(dimethylamino)-6-methoxyisoquinolin-1-yl)oxy)-7,9-dimethyl-14a-(((1-methylcyclopropyl)sulfonyl)carbamoyl)-5,16-dioxo-1,2,3,5,6,7,8,9,10,11,13a,14,14a,15,16,16a-hexadecahydrocyclopropa[e]pyrrolo[1,2-a][1,4]diazacyclopentadecin-6-yl)carbamate]
- EC50 [1, 7]: 4.82 to 103 nM
- EC50 [2, 8]: 4.82 to 103 nM
